Measurements taken from PubChem BioAssay (NCI).
Where “and” joins values, the source holds several entries; their conditions need not be identical. Identical values can stand only once.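 Briefly, cells in 96-well plates were exposed to five compound concentrations for 48 h, and endpoints were estimated by linear interpolation. GI50 = concentration required for 50% inhibition of growth. TGI: concentration producing complete growth inhibition.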

Experiments:
Assay in all cases: NCI anticancer screen, dose series, 48 h
[1] = test system: HOP-92 NSCLC
[2] = test system: SNB-75 CNS
[3] = test system: HCC-2998 colon
[4] = test system: U251 CNS
[5] = test system: OVCAR-5 ovarian
[6] = test system: A498 renal
[7] = test system: HT29 colon
[8] = test system: SNB-19 CNS
[9] = test system: SF-268 CNS
[10] = test system: HS 578T breast

Compound | GI50 [1] [µM] | TGI [1] | GI50 [2] [µM] | TGI [2] | GI50 [3] [µM] | TGI [3] | GI50 [4] [µM] | TGI [4] [µM] | GI50 [5] [µM] | TGI [5] | GI50 [6] [µM] | TGI [6] [µM] | GI50 [7] [µM] | TGI [7] [µM] | GI50 [8] [µM] | TGI [8] [µM] | GI50 [9] [µM] | TGI [9] | TGI [10] [µM] | GI50 [10] [µM]
CC(=O)[CH-]C(=O)Nc1ccccc1.CC(=O)[CH-]C(=O)Nc1ccccc1.CC[O-].CC[O-].[Ti+4] | > 100 | > 100 µM | 61.2 | > 100 µM | > 100 | > 100 µM | > 100 | > 100 | > 100 | > 100 µM | > 100 | > 100 | > 100 | > 100 | > 100 | > 100 | > 100 | > 100 µM |  | 
CN1CCc2c1nc(-c1cccnc1)c1c2N(C)CC1 |  | > 100 µM |  | > 100 µM |  | > 100 µM |  | > 100 |  | > 100 µM |  | > 100 |  | > 100 |  | > 100 |  | > 100 µM |  | 
O=c1c(O)cccn1CCCN(CCCn1cccc(O)c1=O)CCn1cccc(O)c1=O | 6.1 | > 100 µM | 6.1 | 88.2 µM | 5.18 | > 100 µM | 1.84 | > 100 | > 100 | > 100 µM | 22.9 | > 100 | 29.5 | > 100 | 3.78 | > 100 | 1.9 | > 100 µM |  | 
N.N.N.N.N.O=S(=O)([O-])C(F)(F)F.O=S(=O)([O-])C(F)(F)F.[Os+8] | 14.8 | 35.8 µM | 11.1 | 28.5 µM | 7.02 | 20.2 µM | 9.22 | 32.5 | 15.4 | 31.9 µM | 12 | 29.5 | 15.4 | 55.3 |  |  |  |  |  | 
COC(=O)C#CCC1CCCC1C1SCCS1 (stereo not drawn) |  | > 100 µM |  | > 100 µM |  | > 100 µM |  | > 100 |  | > 100 µM |  | > 100 |  | > 100 |  | > 100 |  | > 100 µM |  | 
O=C(N/C(=C\c1cc(Cl)ccc1Cl)c1nc2ccc(Cl)cc2[nH]1)c1ccccc1 |  | 24.4 µM |  | 35.2 µM |  | 32.4 µM |  | 30.1 |  | 60.1 µM |  | 41.9 |  | 30.9 |  | 60.1 |  | 28.1 µM |  | 
NCCC(=O)NC(Cc1cnc[nH]1)C(=O)O (stereo not drawn) |  | > 100 µM |  | > 100 µM |  | > 100 µM |  | > 100 |  | > 100 µM |  |  |  | > 100 |  | > 100 |  | > 100 µM | > 100 | 
CCSc1nc(N)c(C#N)c(-c2ccco2)c1C#N | 5.85 | 45.5 µM | > 100 | > 100 µM |  |  | 22.7 | 83.7 | > 100 | > 100 µM | 26.5 | > 100 | 56.4 | > 100 | 51.2 | > 100 | 32.1 | > 100 µM | > 100 | 33.9
CCN(CC)CCCC(C)Nc1c(Sc2cnc3cc(Cl)ccc3c2NC(C)CCCN(CC)CC)cnc2cc(Cl)ccc12 (stereo not drawn) |  | 4.07 µM |  | 2.98 µM |  | 1.14 µM |  | 2.99 |  | 3.34 µM |  | 3.31 |  | 3.65 |  |  |  | 3.83 µM |  | 
COc1cccc2c1[C@H]1CO[C@H]3C4C[C@H](C(=O)O)C([C@@H](C2)N13)N4C (stereo partly drawn) | 0.684 | 4.55 µM and 3.22 µM | 0.809 | 4.85 µM and 3.53 µM | 0.593 | 8.08 µM and 1.2 µM | 0.5 | 5.52 |  | 4.94 µM and > 24.3 µM |  |  |  |  | 3.81 | > 100 | 1.13 | 7.43 µM and > 32 µM | 0.656 | 
CCCCc1c2c(nc3c1CCc1cc4cc5c(nc4nc1-3)-c1nc3c(c(CCCC)c1CC5)CCC/C3=C\c1ccccc1)/C(=C/c1ccccc1)CCC2 |  |  |  | > 100 µM |  | > 100 µM |  | > 100 |  |  |  |  |  | > 100 |  | > 100 |  | > 100 µM |  | 
O=C(COc1ccc(Cl)cc1)N1CCN(C(=O)COc2ccc(Cl)cc2)c2ccccc21 |  | > 100 µM |  | > 100 µM |  | > 100 µM |  | > 100 |  | > 100 µM |  | > 100 |  | > 100 |  |  |  | > 100 µM |  | 
COc1ccc(-c2onc(-c3c(C)cc(C)cc3C)c2C2=NCCN2)cc1 |  |  |  | > 100 µM |  | > 100 µM |  | 46.7 |  | > 100 µM |  |  |  | > 100 |  | > 100 |  | > 100 µM |  | 
CCN(CC)CCC(CNc1c(C)cnc2cc(Cl)ccc12)c1ccc(Cl)cc1 (stereo not drawn) |  |  | 5.67 | 21 µM |  |  | 3.83 | 13.2 | 8.93 | 24 µM |  |  |  |  | 11.4 | 26.8 | 11.1 | 26.1 µM | 34.1 | 12.3
CC(=O)NNc1nc(C)c(C(=O)/C=C/c2ccc(/C=C/C(=O)c3sc(NNC(C)=O)nc3C)cc2)s1 |  |  |  |  |  | > 100 µM |  | > 100 |  | > 100 µM |  |  |  | > 100 |  | > 100 |  | > 100 µM |  | 
COc1ccc2c(c1)C(=O)c1c-2n(CCCN)c(=O)c2cc([N+](=O)[O-])ccc12 |  |  |  |  |  |  | < 0.01 |  | < 0.01 | < 0.01 µM | < 0.01 | < 0.01 |  |  | < 0.01 | 2.13 | < 0.01 | < 0.01 µM | 4.44 | 1.81
C#C[C@H]1CCCCCC1O (stereo partly drawn) |  | > 100 µM |  | > 100 µM |  | > 100 µM |  | > 100 |  | > 100 µM |  | > 100 |  | > 100 |  | > 100 |  | > 100 µM |  | 
O=c1c(-c2ccccc2)coc2cc(OC/C(=N/O)c3ccc(F)cc3)ccc12 | 18.8 | 44.9 µM | 16.8 | 92.9 µM |  |  | 18.2 | 36.8 | 18.1 | 43.8 µM |  |  | 27.8 | > 100 | 18.7 | 53.5 | 21.5 | 50.6 µM |  | 
Nc1cc2cccc[n+]2c2cccc(Cl)c12 | 51 |  |  |  | 11.4 | 32.4 µM | 6.36 | 33.8 |  |  |  |  | 56.2 |  | 12.7 | 84.1 | 4.94 | 35.6 µM | 60.2 | 21.9
Cc1nc2c(sc(=S)n2-c2ccccc2)c2nc3ccccc3n12 |  |  |  | > 100 µM |  | > 100 µM |  | > 100 |  | > 100 µM |  |  |  | > 100 |  | > 100 |  | > 100 µM |  | 
